Measurements published in US10975077B2 (Novira Therapeutics, Inc., priority 2016, dated 2021).

system: HBV (encapsidated HBV DNA, HepG2.2.15 cells); test: HBV replication inhibition assay, BDNA assay in HepG2.2.15 cells; type: cell-based; settings: Activity in BDNA-assay
Method: HBV replication inhibition by the disclosed compounds were determined in cells infected or transfected with HBV, or cells with stably integrated HBV, such as HepG2.2.15 cells (Sells et al. 1987). In this example, HepG2.2.15 cells were maintained in cell culture medium containing 10% fetal bovine serum (FBS), Geneticin, L-glutamine, penicillin and streptomycin. HepG2.2.15 cells were seeded in 96-well plates at a density of 40,000 cells/well and were treated with serially diluted compounds at a final DMSO concentration of 0.5% either alone or in combination by adding drugs in a checker box format. Cells were incubated with compounds for three days, after which medium was removed and fresh medium containing compounds was added to cells and incubated for another three days. At day 6, supernatant was removed and treated with DNase at 37° C. for 60 minutes, followed by enzyme inactivation at 75° C. for 15 minutes. Encapsidated HBV DNA was released from the virions and covalently linked HBV polymerase by incubating in lysis buffer (Affymetrix QS0010) containing 2.5 μg proteinase K at 50° C. for 40 minutes. HBV DNA was denatured by addition of 0.2 M NaOH and detected using a branched DNA (BDNA) QuantiGene assay kit according to manufacturer recommendation (Affymetrix). HBV DNA levels were also quantified using qPCR, based on amplification of encapsidated HBV DNA extraction with QuickExtraction Solution (Epicentre Biotechnologies) and amplification of HBV DNA using HBV specific PCR probes that can hybridize to HBV DNA and a fluorescently labeled probe for quantitation. In addition, cell viability of HepG2.2.15 cells incubated with test compounds alone or in combination was determined by using CellTitre-Glo reagent according to the manufacturer protocol (Promega). The mean background signal from wells containing only culture medium was subtracted from all other samples, and percent inhibition at each compound concentration was calculated by normalizing to signals from HepG2.2.15 cells treated with 0.5% DMSO using equation E1. % inhibition=(DMSOave−Xi)/DMSOave×100% E1: where DMSOave is the mean signal calculated from the wells that were treated with DMSO control (0% inhibition control) and Xi is the signal measured from the individual wells. EC50 values, effective concentrations that achieved 50% inhibitory effect, were determined by non-linear fitting using Graphpad Prism software (San Diego, Calif.) and equation E2: Y=Y min+(Y max −Y min)/(1+10(Log EC50−X)×HillSlope) E2: […]
where Y represents percent inhibition values and X represents the logarithm of compound concentrations.
Selected disclosed compounds were assayed in the HBV replication assay (BDNA assay), as described above and a representative group of these active compounds is shown in Table 6.

Row | Compound | EC50 [nM]
1 | CN1CC([S+](C)[O-])Cn2nc3c(c2C1=O)CN(C(=O)Nc1ccc(F)c(Cl)c1)CC3 (single isomer, unassigned) [Compound 026B, N-(3-chloro-4-fluoro-phenyl)-10-methyl-8-methylsulfinyl-11-oxo-1,3,4,7,8,9-hexahydropyrido[2,3]pyrazolo[2,4-b][1,4]diazepine-2-carboxamide] | 500 to 1000
2 | C[C@@H]1Cc2nn3c(c2CN1C(=O)Nc1ccc(F)c(Cl)c1)C(=O)N(C)CC(C)(F)C3 (single isomer, unassigned) [Compound 079_D2, (3R,8S*)—N-(3-chloro-4-fluorophenyl)-8-fluoro-3,8,10-trimethyl-11-oxo-1,3,4,7,8,9,10,11-octahydro-2H-pyrido[4′,3′:3,4]pyrazolo[1,5-a][1,4]diazepine-2-carboxamide] | 1 to 100
3 | CC1CN(C)C(=O)c2c3c(nn2C1)C[C@@H](C)N(C(=O)Nc1ccc(F)c(Cl)c1)C3 (single isomer, unassigned) [Compound 080_D2, (3R,8R*)—N-(3-chloro-4-fluorophenyl)-3,8,10-trimethyl-11-oxo-3,4,8,9,10,11-hexahydro-1H-pyrido[4′,3′:3,4]pyrazolo[1,5-a][1,4]diazepine-2 (7H)-carboxamide] | 1 to 100
4 | C[C@@H]1Cc2nn3c(c2CN1C(=O)Nc1ccc(F)c(C(F)(F)F)c1)C(=O)N(C)CC(CO)C3 (single isomer, unassigned) [Compound 081_D2, (3R,8R*)—N-(4-fluoro-3-(trifluoromethyl)phenyl)-8-(hydroxymethyl)-3,10-dimethyl-11-oxo-3,4,8,9,10,11-hexahydro-1H-pyrido[4′,3′:3,4]pyrazolo[1,5-a][1,4]diazepine-2 (7H)-carboxamide] | 1 to 100
5 | C[C@@H]1Cc2nn3c(c2CN1C(=O)Nc1cc(C(F)(F)F)c(F)cc1F)C(=O)N(C)CC(CO)C3 (single isomer, unassigned) [Compound 082_D1, (3R,8S*)—N-(2,4-difluoro-5-(trifluoromethyl)phenyl)-8-(hydroxmethyl)-3,10-dimethyl-11-oxo-1,3,4,7,8,9,10,11-octahydro-2H-pyrido[4′,3′:3,4]pyrazolo[1,5-a][1,4]diazepine-2-carboxamide] | 1 to 100
6 | C[C@@H]1Cc2nn3c(c2CN1C(=O)Nc1cc(C(F)(F)F)c(F)cc1F)C(=O)N(C)CC(CO)C3 (single isomer, unassigned) [Compound 082_D2, (3R,8R*)—N-(2,4-difluoro-5-(trifluoromethyl)phenyl)-8-(hydroxymethyl)-3,10-dimethyl-11-oxo-1,3,4,7,8,9,10,11-octahydro-2H-pyrido[4′,3′:3,4]pyrazolo[1,5-a][1,4]diazepine-2-carboxamide] | 100 to 500
7 | C[C@@H]1Cc2nn3c(c2CN1C(=O)Nc1ccc(F)c(C(F)(F)F)c1F)C(=O)N(C)CC(CO)C3 (single isomer, unassigned) [Compound 083_D2, (3R,8R*)—N-(2,4-difluoro-3-(trifluoromethyl)phenyl)-8-(hydroxymethyl)-3,10-dimethyl-11-oxo-1,3,4,7,8,9,10,11-octahydro-2H-pyrido[4′,3′:3,4]pyrazolo[1,5-a][1,4] diazepine-2-carboxamide] | 1 to 100
8 | C[C@@H]1Cc2nn3c(c2CN1C(=O)Nc1ccc(F)c(Br)c1F)C(=O)N(C)CC(CO)C3 (single isomer, unassigned) [Compound 084_D1, (3R,8S*)—N-(3-bromo-2,4-difluorophenyl)-8-(hydroxymethyl)-3,10-dimethyl-11-oxo-1,3,4,7,8,9,10,11-octahydro-2H-pyrido[4′,3′:3,4]pyrazolo[1,5-a][1,4]diazepine-2-carboxamide] | 100 to 500
9 | C[C@@H]1Cc2nn3c(c2CN1C(=O)Nc1ccc(F)c(Br)c1F)C(=O)N(C)CC(CO)C3 (single isomer, unassigned) [Compound 084_D2, (3R,8R*)—N-(3-bromo-2,4-difluorophenyl)-8-(hydroxymethyl)-3,10-dimethyl-11-oxo-1,3,4,7,8,9,10,11-octahydro-2H-pyrido[4′,3′:3,4]pyrazolo[1,5-a][1,4]diazepine-2-carboxamide] | 1 to 100
10 | C[C@@H]1Cc2nn3c(c2CN1C(=O)Nc1cc(Br)c(F)cc1F)C(=O)N(C)CC(CO)C3 (single isomer, unassigned) [Compound 085_D2, (3R,8R*)—N-(5-bromo-2,4-difluorophenyl)-8-(hydroxymethyl)-3,10-dimethyl-11-oxo-1,3,4,7,8,9,10,11-octahydro-2H-pyrido[4′,3′:3,4]pyrazolo[1,5-a][1,4]diazepine-2-carboxamide] | 1 to 100
11 | C[C@@H]1Cc2nn3c(c2CN1C(=O)Nc1ccc(F)c(Br)c1)C(=O)N(C)CC(CO)C3 (single isomer, unassigned) [Compound 086_D2, (3R,8R*)—N-(3-bromo-4-fluorophenyl)-8-(hydroxymethyl)-3,10-dimethyl-11-oxo-1,3,4,7,8,9,10,11-octahydro-2H-pyrido[4′,3′:3,4]pyrazolo[1,5-a][1,4]diazepine-2-carboxamide] | 1 to 100

same assay, conditions: Hepatitis B virus, HepG2.2.15, Activity in BDNA-assay

Row | Compound | EC50 [nM]
12 | COC1CN(C)C(=O)c2c3c(nn2C1)CCN(C(=O)Nc1ccc(F)c(Cl)c1)C3 (single isomer, unassigned) [Compound 016B, (R*)—N-(3-chloro-4-fluorophenyl)-8-methoxy-10-methyl-11-oxo-3,4,8,9,10,11-hexahydro-1H-pyrido[4′,3′:3,4]pyrazolo[1,5-a][1,4]diazepine-2 (7H)-carboxamide] | 1 to 100
13 | CN1CC([S+](C)[O-])Cn2nc3c(c2C1=O)CN(C(=O)Nc1ccc(F)c(Cl)c1)CC3 (single isomer, unassigned) [Compound 026A, N-(3-chloro-4-fluoro-phenyl)-10-methyl-8-methylsulfinyl-11-oxo-1,3,4,7,8,9-hexahydropyrido[2,3]pyrazolo[2,4-b][1,4]diazepine-2-carboxamide] | > 1000
14 | C[C@@H]1Cc2nn3c(c2CN1C(=O)Nc1ccc(F)c(Cl)c1)C(=O)N(C)CC(C)(F)C3 (single isomer, unassigned) [Compound 079_D1, (3R,8R*)—N-(3-chloro-4-fluorophenyl)-8-fluoro-3,8,10-trimethyl-11-oxo-1,3,4,7,8,9,10,11-octahydro-2H-pyrido[4′,3′:3,4]pyrazolo[1,5-a][1,4]diazepine-2-carboxamide] | 1 to 100
15 | CC1CN(C)C(=O)c2c3c(nn2C1)C[C@@H](C)N(C(=O)Nc1ccc(F)c(Cl)c1)C3 (single isomer, unassigned) [Compound 080_D1, (3R,8S*)—N-(3-chloro-4-fluorophenyl)-3,8,10-trimethyl-11-oxo-3,4,8,9,10,11-hexahydro-1H-pyrido[4′,3′,3,4]pyrazolo[1,5-a][1,4] diazepine-2 (7H)-carboxamide] | 1 to 100
16 | C[C@@H]1Cc2nn3c(c2CN1C(=O)Nc1ccc(F)c(C(F)(F)F)c1)C(=O)N(C)CC(CO)C3 (single isomer, unassigned) [Compound 081_D1, (3R,8S*)—N-(4-fluoro-3-(trifluoromethyl)phenyl)-8-(hydroxymethyl)-3,10-dimethyl-11-oxo-3,4,8,9,10,11-hexahydro-1H-pyrido[4′,3′:3,4]pyrazolo[1,5-a][14]diazepine-2 (7H)-carboxamide] | 1 to 100
17 | C[C@@H]1Cc2nn3c(c2CN1C(=O)Nc1ccc(F)c(C(F)(F)F)c1F)C(=O)N(C)CC(CO)C3 (single isomer, unassigned) [Compound 083_D1, (3R,8S*)—N-(2,4-difluoro-3-(trifluoromethyl)phenyl)-8-(hydroxymethyl)-3,10-dimethyl-11-oxo-1,3,4,7,8,9,10,11-octahydro-2H-pyrido[4′,3′:3,4]pyrazolo[1,5-a][1,4] diazepine-2-carboxamide] | 1 to 100
18 | C[C@@H]1Cc2nn3c(c2CN1C(=O)Nc1cc(Br)c(F)cc1F)C(=O)N(C)CC(CO)C3 (single isomer, unassigned) [Compound 085_D1, (3R,8 S*)—N-(5-bromo-2,4-difluorophenyl)-8-(hydroxymethyl)-3,10-dimethyl-11-oxo-1,3,4,7,8,9,10,11-octahydro-2H-pyrido[4′,3′:3,4]pyrazolo[1,5-a][1,4]diazepine-2-carboxamide] | 1 to 100
19 | C[C@@H]1Cc2nn3c(c2CN1C(=O)Nc1ccc(F)c(Br)c1)C(=O)N(C)CC(CO)C3 (single isomer, unassigned) [Compound 086_D1, (3R,8S*)—N-(3-bromo-4-fluorophenyl)-8-(hydroxymethyl)-3,10-dimethyl-11-oxo-1,3,4,7,8,9,10,11-octahydro-2H-pyrido[4′,3′:3,4]pyrazolo[1,5-a][1,4]diazepine-2-carboxamide] | 1 to 100
